Data reported in PubChem BioAssay AID652072 (Broad Institute, 2013).
Records with an inconclusive call do not appear.

Tested on: LOX IMVI melanoma, caspase 3/7 luminescence, apoptosis
Experiment: apoptosis induction over several timepoints, melanoma line – cell-based, LOX IMVI, luminescence, multiple timepoints, dry powder, mechanism study for HRAS target identification, dose response (AID 652072)
Conditions: measured here: caspase 3/7, timepoint 3

## CCC(=O)N(c1ccc(OC)c(Cl)c1)C(C(=O)NCCc1ccccc1)c1cccs1 (stereo unspecified)
  AC40: > 35 µM
